Among the data in the METLIN SMRT retention time set (Domingo-Almenara et al. 2019) are RP-LC retention time values, retold here.

Structures are written as SMILES.

This series is described as follows: gradient 5% acetonitrile 3 min, to 50% in 2 min, to 85% in 15 min, held 3 min, 100 µL/min. Particulars: column: Zorbax Extend-C18 2.1 x 50 mm; eluents: water / acetonitrile, 0.1% formic acid. The method, boiled down: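 Using water and acetonitrile that each contained 0.1% formic acid, mixtures of ~100 pure standards were separated at 100 μL/min on a Zorbax Extend-C18 column (2.1 × 50 mm, 1.8 μm). The HPLC fed a quadrupole time-of-flight mass spectrometer working in positive and negative ionization mode, with dead and dwell volumes of 40 μL and 900 μL. Data were acquired over 3 months. Retention time was read from computationally picked adduct peaks after manual inspection of each.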
`CN1C(=O)c2cccn2CC1CNC(=O)c1cccn1C` (stereo not given) returned an RP-LC retention time of 636 s.
The figure for `CN(C)c1ccc(C(=O)N2CCC(COc3ccc(C(=O)NC4CC4)cc3)CC2)cc1` is 779 s; for `COc1ccccc1NC(=O)NCCCn1c(C(F)(F)F)nc2cccnc21` it is 797 s; for `CNC(=O)N1CC(c2nc(-c3ccc(F)cc3)no2)C2(CCOCC2)C1` (stereo not given) it is 723 s.
For `CCN1CCN(C(=O)CN2C(=O)c3ccccc3Sc3ncccc32)CC1` the value was 581 s; for `Cc1ccc(CNC(=O)C2CCN(S(=O)(=O)c3ccc4c(c3)CCCC(=O)N4)CC2)cc1`, 752 s; for `Cc1ccc(S(=O)(=O)NCCc2cn(CC(C)C)c3ncccc23)cc1C`, 978 s.
As for `COc1ccccc1-c1noc(C2CCCN2C(=O)Cc2ccc(F)cc2)n1` (stereo not given), the RP-LC retention time worked out at 866 s.
`CCOCCn1c(-c2ccccc2Cl)nc2ccccc21` registered an RP-LC retention time of 707 s.
For `CC(C)CC(=O)N1CCCC(C(=O)N2CCOCC2)C1` (stereo not given) the value was 628 s; for `O=C(C1CCN(S(=O)(=O)c2ccc(-c3noc(C4CCCCC4)n3)cc2)CC1)N1CCCC1`, 836 s.
The figure for `CN1CC(=O)NC(c2ccccc2Br)C1=O` (stereo not given) is 550 s; for `CCn1c(=O)sc2cc(S(=O)(=O)N3CCC(C(=O)NCc4ccccc4OC)CC3)ccc21` it is 881 s; for `COc1ccc(C(=O)N2CCC3(CC2)N=C(c2ccc(Cl)cc2)NO3)cc1` it is 851 s.
The figure for `Cc1cccc(C)c1Nc1c(-c2ccc(O)cc2)nc2ncccn12` is 658 s.
`O=C(Nc1ccc(F)cc1Cl)c1c(O)c2cccnc2n(-c2cccc(F)c2)c1=O` returned an RP-LC retention time of 1300 s.
For `CCOc1ccc(C(=O)N2CCC(n3c(-c4ccoc4)nc4cccnc43)C2)cc1` (stereo not given) the value was 756 s.
The compound `CC(C)(C)c1noc(-c2ccnc(-n3cnc(C(=O)NC4CCCCC4)c3)c2)n1` displayed an RP-LC retention time of 1100 s.
For `CCOc1ccccc1NC(=O)Cn1nc2c(Oc3cccc(F)c3)nccn2c1=O` the value was 906 s.
For `Cc1noc(C)c1Cc1ccc(C(=O)N2CCc3nn(C)c(=O)n3CC2)o1` the value was 633 s; for `CC(C)NC(=O)Cn1cnc2nc(N3CCCC(C(=O)NC4CC4)C3)sc2c1=O` (stereo not given), 608 s; for `Cc1ccccc1-c1noc(C2CCCN2C(=O)Nc2ccccc2Cl)n1` (stereo not given), 606 s.
For `COc1ccc(CNC(=O)C2(C)CCN(S(=O)(=O)c3ccc(Br)s3)CC2)cc1` the value was 961 s; for `COc1ccc(-n2cc(C(=O)O)c3c2C(C(F)(F)F)CC(=O)N3)c(OC)c1` (stereo not given), 731 s.
Consider `COc1cccc(-n2c(N3CCC(C(=O)NCC4CC4)CC3)nc3ccsc3c2=O)c1`, for which the RP-LC retention time turned out to be 745 s.
For `Cc1sc(NC(=O)Cc2csc(-c3ccccc3)n2)nc1-c1ccccc1` the value was 1160 s; for `O=c1n(CCOc2ccc(F)cc2)nc2c(S(=O)(=O)N3CCCCCC3)cccn12`, 744 s.
The figure for `Cn1ncc2c3ccccc3n(CC(=O)NCCc3ccco3)c2c1=O` is 904 s; for `O=C(Nc1nnc(C(F)(F)F)s1)C1CCN(C(=O)c2ccc(F)cc2)CC1` it is 815 s.
The figure for `CCCn1c(=O)c(C)nc2cc(-c3noc(-c4cccc(OC)c4OC)n3)ccc21` is 1140 s; for `COc1ccc(C2CCCN2C(=O)c2nn(C)cc2Cl)cc1` (stereo not given) it is 770 s; for `CCc1noc(-c2ccnc(-n3ncc(C(=O)NCC4CC4)c3C)c2)n1` it is 1110 s.
In the case of `Cc1sc(-c2nnc(C3CC3)o2)cc1NC(=O)c1ccc(N(C)C)cc1`, the RP-LC retention time was 963 s.
For `Cc1nc(-c2csc(S(=O)(=O)N3CCC(C(=O)NCCC(C)C)CC3)c2)no1` the value was 868 s; for `CCc1ccccc1NC(=O)Cn1nc(N2CCOCC2)c2ccccc2c1=O`, 744 s; for `O=C(c1cc(Cl)ccc1F)N1CCC2(CC1)NC(=O)N(Cc1ccc(F)cc1)C2=O`, 852 s.
For `O=S(=O)(c1ccc(-c2noc(-c3cccc(Cl)c3)n2)cc1)N1CCCC1` the value was 1260 s; for `Cc1ccc(F)cc1S(=O)(=O)N1CCn2c(nnc2C2CCN(C(C)C)C2)C1` (stereo not given), 608 s; for `Cc1ccc(-c2nc3c(C)cccn3c2Nc2ccccc2C)cc1`, 788 s.
For `COc1ccc2c(CCNC(=O)c3ccc(F)cc3)c[nH]c2c1` the value was 778 s; for `O=C(Cn1c(=O)c2cc(C3CC3)nn2c2ncccc21)NCc1ccccc1Cl`, 766 s.
`COCCN(CC(=O)N1CCc2sccc2C1COc1ccccc1C)C(=O)CC(C)C` (stereo not given) returned an RP-LC retention time of 973 s.
For `COc1ccc(Cc2nc3nccc(-c4cccs4)n3n2)cc1` the value was 871 s; for `CN(c1nccn2c(=O)n(CC(=O)Nc3ccc(F)c(Cl)c3)nc12)C1CCCCC1`, 819 s.
The figure for `O=C(NCc1ccccc1F)c1nc(N2CCOCC2)c2ccccc2n1` is 678 s; for `CCc1ccc(NC(=O)Cn2c(=O)cc(-c3nc(C(C)C)no3)c3ccccc32)cc1` it is 1100 s; for `O=C(c1ccc2nc[nH]c2c1)N1CCC(c2nc(-c3ccccc3)no2)C1` (stereo not given) it is 626 s.
For `COc1ccc(-c2nc3cnccn3c2Nc2ccc(C(=O)NCC3CCCO3)cc2)cc1` (stereo not given) the value was 649 s.
In turn, `Cc1sc(NC(=O)c2ccccc2F)nc1-c1ccc2c(c1)NC(=O)CO2` gave an RP-LC retention time of 878 s.
For `CCCCN1C(=O)C(C)(C(=O)NCCOC)Oc2cccnc21` (stereo not given) the value was 781 s; for `CCc1noc(NC(C)=O)c1-c1ccc(C)c(S(=O)(=O)Nc2ccc(F)c(Cl)c2)c1`, 875 s.
The figure for `O=C(Nc1ccc(F)cc1Cl)C1CCc2nc(N3CCOCC3)ncc2C1` (stereo not given) is 793 s; for `COc1cccc(-c2nc(Cn3c(=O)c4c(C)cc(C)nc4n(C)c3=O)c(C)o2)c1OC` it is 1130 s.
Regarding `Cc1c(-c2noc(-c3ccc4cc[nH]c4c3)n2)nnn1-c1ccc(F)cc1`, the RP-LC retention time amounted to 996 s.
For `O=C(NCc1ccncc1)C1CCCN(c2nnc3ccc(C(F)(F)F)cn23)C1` (stereo not given) the value was 550 s.
As to `COc1cc(Nc2c(C#N)cnc3cc(OCCCN4CCN(C)CC4)c(OC)cc23)c(Cl)cc1Cl`, the RP-LC retention time came out at 675 s.
The figure for `CN1C(=O)c2ccccc2Oc2ccc(C(=O)NCc3ccccc3Cl)cc21` is 948 s.
The figure for `CC(C)CCNC(=O)N1C[C@@H]2CCCN3CCC[C@@H]([C@H]23)[C@H]1CCCC(=O)NCC1CC1` is 625 s; for `Cc1ccsc1C(=O)NCC1Cn2cccc2C(=O)N1C` (stereo not given) it is 656 s; for `CCOc1cc(=O)n2c(c1C(=O)NC1CCCC1)CCCCC2` it is 671 s.
The figure for `Cc1ncoc1C(=O)NCC1Cn2cccc2C(=O)N1CC(C)C` (stereo not given) is 647 s; for `O=C(NCc1ccco1)N1CCCn2nc(-c3cccc(Cl)c3)cc2C1` it is 854 s.
As to `CCN(CC)CCNC(=O)c1nnc(-c2ccc(S(=O)(=O)N3CCC(C)CC3)cc2)o1`, the RP-LC retention time was determined as 696 s.
For `Cc1ccc(N2C=C(C(=O)N3CCCC3)S(=O)(=O)c3ccc(F)cc32)cc1` the value was 799 s; for `O=c1n(Cc2ccc(F)cc2)nc2c(S(=O)(=O)N3CCCCCC3)cccn12`, 956 s; for `CCSc1nnc(NC(=O)CCc2csc(NC(=O)c3cccs3)n2)s1`, 788 s.
With `COc1ccc2c(c1)C(C)CC(C)(C)N2C(=O)CSc1ncccn1` (stereo not given), the RP-LC retention time amounted to 994 s.
The figure for `CCOc1ccc(N2C(=O)C3N=NN(Cc4nc(-c5ccc(Br)cc5)no4)C3C2=O)cc1` (stereo not given) is 1050 s; for `Cc1cc2[nH]c(C(=O)Nc3ccc(F)c(F)c3F)c(CN3CCOCC3)c2s1` it is 743 s.
Compound `CCOC(=O)c1ccc(Nc2c(-c3ccc(N4CCOCC4)cc3)nc3cnccn23)cc1` gave an RP-LC retention time of 795 s.
The figure for `O=C(CCn1cnc2cc(-c3noc(-c4cncc(Br)c4)n3)ccc21)N1CCCCCC1` is 814 s; for `O=C(c1ccccc1)c1ccc(-c2ccc(O)cc2)cc1` it is 1000 s; for `CC(C)CNC(=O)c1ccc(-c2cccs2)nc1` it is 825 s.
`CCN1C(=O)Cc2ccccc2C1C(=O)NCCOC` (stereo not given) returned an RP-LC retention time of 610 s.
For `O=C(Nc1nc(-c2nc3ccccc3s2)cs1)c1ccno1` the value was 810 s; for `O=C(Nc1ccc(F)cc1)N1C[C@H]2C[C@H](C1)[C@H]1CCCC(=O)N1C2`, 640 s.
The figure for `COc1ccc(NC(=O)N2CCN(CCn3c(C(C)C)nc4cccnc43)CC2)c(OC)c1` is 592 s; for `CCOc1ccc(NC(=O)c2[nH]c(C)c(S(=O)(=O)N3CCCCC3)c2C)cc1` it is 979 s.
For `Cc1cc(C2CCCN2C(=O)Nc2ccccc2Cl)no1` (stereo not given) the value was 802 s; for `CCC(=O)N1CCc2cc(C(=O)N3CCN(c4ncccn4)CC3)ccc21`, 697 s.
